Reference: paper PMC12503909, “C1′‐Branched Acyclic Nucleoside Phosphonates as Inhibitors of Plasmodium Falciparum 6‐Oxopurine Phosphoribosyltransferase” (Chemmedchem, 2025)

Key:
CCRF-CEM = test: Cytotoxicity of the prodrug in human cells (CellTiter-Glo 2.0), CCRF-CEM; format: cell-based; details: 10 µM, versus untreated control; mean ± SD
Experimental: (§1) Compound cytotoxicity was evaluated in nontumor human dermal fibroblasts (NHDF), CCRF‐CEM, HL‐60, HeLa, and HepG2 cells. All cell lines were obtained from ATCC (Manassas, VA, USA). The cytotoxicity was assayed using CellTiter‐Glo 2.0 detection reagent (Promega, Madison, USA) according to the manufacturer's protocol. The concentration of prodrug used in this assay was 10 μM. This concentration was chosen as it would more accurately reflect the expected concentration in an in vitro assessment.

HeLa = test: Cytotoxicity of the prodrug in human cells (CellTiter-Glo 2.0), HeLa; format: cell-based; details: 10 µM, versus untreated control; mean ± SD
Experimental: as §1

NHDF = test: Cytotoxicity of the prodrug in human cells (CellTiter-Glo 2.0), NHDF; format: cell-based; details: 10 µM, versus untreated control; mean ± SD
Experimental: as §1

P. falciparum D6 = test: In vitro antimalarial activity, 3H-hypoxanthine growth inhibition assay, D6 line; format: cell-based, Plasmodium falciparum; details: 96 h, Pf infected erythrocytes, D6 strain sensitive to chloroquine, mean ± SD of three independent experiments
Experimental: (§2) The IC50 values were determined as previously described.^[ [32] ^] P. falciparum D6 (Sierra‐Leone) laboratory line, sensitive to most antimalarial drugs, and W2 (Indochina) line, resistant to chloroquine and pyrimethamine, were maintained as previously described^[ [33] ^] in medium consisted of 10.4 g L^−1 RPMI‐1640‐LPLF powder (Gibco BRL), 5.97 g L^−1 HEPES buffer (MP Biomedicals, USA), 2.0 g L^−1 d‐glucose (BDH chemicals, Australia), 0.05 g L^−1 hypoxanthine (Sigma, USA) and 40 mg L^−1 gentamycin (Pfizer, Australia), supplemented with 0.21% NaHCO3 and 10% human plasma prior to use. Red blood cells O (Rh+) type were obtained from the Australian Red Cross Blood Service and added to 4% haematocrit. Cultures were routinely synchronized using D‐sorbitol.^[ [34] ^] To evaluate the antimalarial activity of the ANPs, the ^3H‐hypoxanthine growth inhibition assay was utilized, where the uptake of ^3H‐hypoxanthine by malaria parasites is used as a surrogate marker for parasite growth. For these assays, stock solutions of the tested compounds were made to concentrations of 20–40 mM in DMSO or water and subsequently diluted in hypoxanthine‐free complete media prior to assay. The assays (in 96‐well plate format) were initiated when most parasites (> 90%) were at the early trophozoite (ring) stage. Parasite cultures (100 μL per well) at 0.5% initial parasitemia and 2% hematocrit in hypoxanthine‐free RPMI1640‐LPLF medium were exposed to ten twofold serial dilutions of the compounds and chloroquine (reference drug) for 96 h, with ^3H‐hypoxanthine (0.2 μCi well^−1) added ≈48 h after the beginning of the experiment.
(§3) The ^3H‐hypoxanthine incorporation data were analyzed, and sigmoidal growth inhibition curves were produced by nonlinear regression analysis of the ^3H‐hypoxanthine incorporation data versus log‐transformed concentrations of the compounds using Graphpad Prism V5.0 software (GraphPad Software Inc. USA). […] The IC50 values were based on three independent experiments, with mean ± SD calculated.

HL-60 = test: Cytotoxicity of the prodrug in human cells (CellTiter-Glo 2.0), HL-60; format: cell-based; details: 10 µM, versus untreated control; mean ± SD
Experimental: as §1

HepG2 = test: Cytotoxicity of the prodrug in human cells (CellTiter-Glo 2.0), HepG2; format: cell-based; details: 10 µM, versus untreated control; mean ± SD
Experimental: as §1

P. falciparum W2 = test: In vitro antimalarial activity, 3H-hypoxanthine growth inhibition assay, W2 line; format: cell-based, Plasmodium falciparum; details: 96 h, Pf infected erythrocytes, W2 strain resistant to chloroquine, mean ± SD of three independent experiments
Experimental: as §2, §3

[1] = Plasmodium falciparum, D6, Erythrocyte
[2] = Plasmodium falciparum, W2, Erythrocyte

Row | Structure (SMILES) | Viability CCRF-CEM (CCRF-CEM) | Viability HeLa (HeLa) | Viability NHDF (NHDF) | IC50 (P. falciparum D6; [1]) | Viability HL-60 (HL-60) | Viability HepG2 (HepG2) | IC50 (P. falciparum W2; [2]) | IC50 (P. falciparum D6) | IC50 (P. falciparum W2)
1 | CCOC(=O)[C@H](Cc1ccccc1)NP(=O)(CCOCC(OCCO)n1cnc2c(=O)[nH]cnc21)N[C@@H](Cc1ccccc1)C(=O)OCC (some centres unmarked) [21c, Bis‐(L‐phenylalaninate ethyl ester) prodrug of (2‐(2‐(2‐hydroxyethoxy)‐2‐(hypoxanthin‐9‐yl)ethoxy)ethyl) phosphonic acid] | 100 ± 2 % control | 97 ± 2 % control | 102 ± 6 % control | 41 ± 5 µM | 104 ± 2 % control | 97 ± 2 % control | 14 ± 2 µM | – | –
2 | CCOC(=O)[C@H](Cc1ccccc1)NP(=O)(COCC(OCCO)n1cnc2c(=O)[nH]cnc21)N[C@@H](Cc1ccccc1)C(=O)OCC (some centres unmarked) [21a, Bis‐(L‐phenylalaninate ethyl ester) prodrug of ((2‐(2‐hydroxyethoxy)‐2‐(hypoxanthin‐9‐yl)ethoxy)methyl)phosphonic acid] | 101 ± 2 % control | 97 ± 2 % control | 104 ± 8 % control | 34 ± 6 µM | 103 ± 0 % control | 98 ± 3 % control | 71 ± 1 µM | – | –
3 | CCOC(=O)[C@H](Cc1ccccc1)NP(=O)(CCOCC(OCCOCP(=O)(N[C@@H](Cc1ccccc1)C(=O)OCC)N[C@@H](Cc1ccccc1)C(=O)OCC)n1cnc2c(=O)[nH]cnc21)N[C@@H](Cc1ccccc1)C(=O)OCC (some centres unmarked) [19a, Tetra‐(L‐phenylalaninate ethyl ester) prodrug of (2‐(2‐(hypoxanthin‐9‐yl)‐2‐(2‐(phosphonatomethoxy)ethoxy)ethoxy)ethyl)phosphonic acid] | 106 ± 1 % control | 105 ± 1 % control | 114 ± 5 % control | 2 µM | 112 ± 1 % control | 116 ± 1 % control | 3 µM | 2.1 ± 0.2 µM | 3.4 ± 1.1 µM
